From patent US11384120B2, “Peptide capable of binding to biomarker for inflammatory and metabolic diseases, and use thereof” (NIBEC CO., LTD., priority 2019, dated 2022)
Where two headings read alike, the source gives them in different places.

Columns and labels:
IL-6 = IL-6 expression by ELISA in palmitic acid-treated HepG2 cells; format: cell-based; details: HepG2, peptide 200 μM 2 hours, then palmitic acid 200 μM 24 hours, medium, FIG. 4
Description: HepG2 cells were plated at a density of 70% on a 6-well plate. After 16 hours, the cells were starved using DMEM medium containing 0.5% FBS for 2 hours. The cells were treated with a medium containing each of the peptides of SEQ ID NOS: 1 to 6 at a concentration of 200 μM for 2 hours, and were further treated with palmitic acid at a concentration of 200 μM to induce an inflammatory response for 24 hours. Each medium was collected, and the level of expression of IL-6, an inflammatory cytokine, was detected with an ELISA kit (R&D, Minneapolis, Minn., USA).

RAW 264.7 cells [1] = tested on: RAW 264.7 cells
Description: (§1) RAW 264.7 cells were seeded at a density of 2×10^4/well on a 6-well plate. After 24 hours, replacement was conducted with DMEM medium containing 0.5% FBS. The cells were treated with 50 μM of each of fluorescence (rhodamine)-labeled peptides of SEQ ID NOS: 1, 5 and 6. After 20 minutes, the cells were fixed and observed with a confocal microscope.

RAW 264.7 cells [2] = experiment: cell permeability of rhodamine-labeled peptides by confocal microscopy; details: RAW 264.7, rhodamine-labeled peptide 50 μM, 20 minutes, FIG. 3
Description: as §1

Row | cell permeability (fluorescence in the cells) (RAW 264.7 cells [1]) | Sequence | expression level of IL-6 (IL-6) | cell permeability (fluorescence in the cells) (RAW 264.7 cells [2])
1 | excellent cell permeability | AESPLTNRGWNPGKCSTRGRKCCRRKK [SEQ ID NO: 6] | lowest IL-6 expression level | 
2 |  | GKCSTRGRKCCRRKK [SEQ ID NO: 5] |  | excellent cell permeability
